Measured values as given in the NIST ThermoML archive (doi:10.1021/je050089u).

Experiment: excess molar enthalpy (molar enthalpy of mixing); xn = mol fraction of the nth substance listed
Conditions: Fluid (supercritical or subcritical phases)

COC(=O)OC [dimethyl carbonate] + O=C=O
excess molar enthalpy [kcal/mol]
Conditions | 303.15 K | 308.15 K
5000 kPa, x2 = 0.1537 | – | -0.47
5000 kPa, x2 = 0.2239 | – | -0.66
5000 kPa, x2 = 0.2901 | – | -0.855
5000 kPa, x2 = 0.412 | – | -1.2
5000 kPa, x2 = 0.4682 | – | -1.36
5000 kPa, x2 = 0.5215 | – | -1.49
5000 kPa, x2 = 0.6205 | – | -1.73
5000 kPa, x2 = 0.7103 | – | -1.93
5000 kPa, x2 = 0.7189 | – | -1.93
5000 kPa, x2 = 0.7273 | – | -1.88
5000 kPa, x2 = 0.7923 | – | -1.4
5000 kPa, x2 = 0.8674 | – | -0.854
5000 kPa, x2 = 0.9364 | – | -0.391
5000 kPa, x2 = 0.9877 | – | -0.00526
5000 kPa, x2 = 0.9939 | – | 0.0268
5500 kPa, x2 = 0.1547 | – | -0.44
5500 kPa, x2 = 0.2917 | – | -0.836
5500 kPa, x2 = 0.3544 | – | -1.02
5500 kPa, x2 = 0.4138 | – | -1.16
5500 kPa, x2 = 0.47 | – | -1.31
5500 kPa, x2 = 0.5234 | – | -1.45
5500 kPa, x2 = 0.574 | – | -1.57
5500 kPa, x2 = 0.6222 | – | -1.69
5500 kPa, x2 = 0.6681 | – | -1.78
5500 kPa, x2 = 0.7119 | – | -1.89
5500 kPa, x2 = 0.7536 | – | -1.94
5500 kPa, x2 = 0.7698 | – | -1.96
5500 kPa, x2 = 0.7935 | – | -1.79
5500 kPa, x2 = 0.8317 | – | -1.46
5500 kPa, x2 = 0.8682 | – | -1.12
5500 kPa, x2 = 0.9368 | – | -0.498
6000 kPa, x2 = 0.1556 | – | -0.426
6000 kPa, x2 = 0.2931 | – | -0.79
6000 kPa, x2 = 0.4154 | – | -1.12
6000 kPa, x2 = 0.4717 | – | -1.25
6000 kPa, x2 = 0.5757 | – | -1.5
6000 kPa, x2 = 0.6238 | – | -1.6
6000 kPa, x2 = 0.7132 | – | -1.77
6000 kPa, x2 = 0.7549 | – | -1.84
6000 kPa, x2 = 0.7946 | – | -1.91
6000 kPa, x2 = 0.7947 | -1.9 | –
6000 kPa, x2 = 0.8326 | – | -1.93
6000 kPa, x2 = 0.8327 | -1.93 | –
6000 kPa, x2 = 0.869 | – | -1.5
6000 kPa, x2 = 0.8691 | -1.96 | –
6000 kPa, x2 = 0.8901 | -1.95 | –
6000 kPa, x2 = 0.897 | -1.94 | –
6000 kPa, x2 = 0.9039 | -1.82 | –
6000 kPa, x2 = 0.9372 | -1.18 | -0.715
6000 kPa, x2 = 0.9692 | – | -0.276
6000 kPa, x2 = 0.9693 | -0.547 | –
6500 kPa, x2 = 0.0807 | – | -0.219
6500 kPa, x2 = 0.1564 | – | -0.404
6500 kPa, x2 = 0.2275 | – | -0.582
6500 kPa, x2 = 0.2944 | – | -0.751
6500 kPa, x2 = 0.3574 | – | -0.928
6500 kPa, x2 = 0.4169 | – | -1.05
6500 kPa, x2 = 0.4733 | – | -1.2
6500 kPa, x2 = 0.5266 | – | -1.31
6500 kPa, x2 = 0.5772 | – | -1.41
6500 kPa, x2 = 0.6253 | – | -1.52
6500 kPa, x2 = 0.671 | – | -1.61
6500 kPa, x2 = 0.7145 | – | -1.67
6500 kPa, x2 = 0.756 | – | -1.75
6500 kPa, x2 = 0.7956 | – | -1.8
6500 kPa, x2 = 0.8335 | – | -1.83
6500 kPa, x2 = 0.8697 | – | -1.85
6500 kPa, x2 = 0.8837 | – | -1.84
6500 kPa, x2 = 0.9044 | – | -1.61
6500 kPa, x2 = 0.9376 | – | -1.02
6500 kPa, x2 = 0.9694 | – | -0.47
7000 kPa, x2 = 0.0812 | – | -0.208
7000 kPa, x2 = 0.1572 | – | -0.389
7000 kPa, x2 = 0.2285 | – | -0.551
7000 kPa, x2 = 0.2956 | – | -0.722
7000 kPa, x2 = 0.3587 | – | -0.859
7000 kPa, x2 = 0.4184 | – | -1
7000 kPa, x2 = 0.4747 | – | -1.11
7000 kPa, x2 = 0.528 | – | -1.23
7000 kPa, x2 = 0.5786 | – | -1.32
7000 kPa, x2 = 0.6266 | – | -1.42
7000 kPa, x2 = 0.6723 | – | -1.49
7000 kPa, x2 = 0.7157 | – | -1.56
7000 kPa, x2 = 0.7571 | – | -1.62
7000 kPa, x2 = 0.7966 | – | -1.65
7000 kPa, x2 = 0.8343 | – | -1.69
7000 kPa, x2 = 0.8703 | – | -1.71
7000 kPa, x2 = 0.9049 | – | -1.68
7000 kPa, x2 = 0.9249 | – | -1.66
7000 kPa, x2 = 0.9443 | – | -1.35
7000 kPa, x2 = 0.9507 | – | -1.24
7000 kPa, x2 = 0.9697 | – | -0.767
7500 kPa, x2 = 0.0816 | – | -0.178
7500 kPa, x2 = 0.1579 | – | -0.338
7500 kPa, x2 = 0.2294 | – | -0.499
7500 kPa, x2 = 0.2967 | – | -0.633
7500 kPa, x2 = 0.36 | – | -0.771
7500 kPa, x2 = 0.4197 | – | -0.885
7500 kPa, x2 = 0.476 | – | -0.996
7500 kPa, x2 = 0.5294 | – | -1.09
7500 kPa, x2 = 0.5799 | – | -1.17
7500 kPa, x2 = 0.6279 | – | -1.24
7500 kPa, x2 = 0.6734 | – | -1.32
7500 kPa, x2 = 0.7168 | – | -1.37
7500 kPa, x2 = 0.7581 | – | -1.42
7500 kPa, x2 = 0.7974 | – | -1.44
7500 kPa, x2 = 0.835 | – | -1.46
7500 kPa, x2 = 0.871 | – | -1.47
7500 kPa, x2 = 0.9053 | – | -1.48
7500 kPa, x2 = 0.9382 | – | -1.42
7500 kPa, x2 = 0.9698 | – | -1.24
7500 kPa, x2 = 0.9759 | – | -1.02
